Results: patent publication US20230346827A1 (priority 2020, published 2023)

System: Mouse cortical neurons
Experiment: Gene expression array and pathway analysis, cortical neurons, LMW-DS 0.01 mg/ml 48 h
Format: cell-based
Details: for number of genes: abolished nutrient effect / number of genes: new effect induced by LMW-DS / number of genes: total / number of genes: enhanced response to nutrients / number of genes: not different from control: cortical neurons
Experimental: For each cell line, n=8 × 25 cm^2 culture flasks were set up. Two flasks were harvested for each cell type on the day of treatment (24 hours after seeding). This represents the Day0 time point. From the remaining flasks, three flasks were treated with Control Medium and three were treated with Culture Medium (CM) containing LMW-DS to give a final concentration of 0.01 mg/ml. Cells from the treated flasks were collected after 48 hours. Therefore the collected data represent (a) untreated cells (Day0 Controls and Day2 Controls) and (b) cells treated with LMW-DS (ILB®, Tikomed AB, Viken, Sweden, WO 2016/076780) for 48 hours (Day2 LMW-DS treated).
Medium was prepared by adding 10 ml B-27 Serum-Free Supplement and 2.5 ml GlutaMAX™-1 Supplement to 500 ml of Neurobasal medium. The medium was pre-warmed to 37° C. Cells from 12 vials were thawed sequentially in a 37° C. water bath for no longer than 2 min and gently transferred into a 15 ml tube. 9 ml of medium was gently added drop-wise to each. The cell suspension was mixed by inverting the tubes carefully twice.
The cells were centrifuged for 5 minutes at 200 x g. Supernatant was removed (to the last 0.5 ml) and cells were gently re-suspended by trituration. The cells from the 12 vials were mixed and distributed equally into the previously coated 25 cm^2 flasks (n=8). Cells were incubated at 37° C. with 5% CO2 for 24 hours.
LMW-DS was provided at a stock concentration of 20 mg/ml and was kept in a temperature monitored refrigerator at 4° C. A fresh 100x LMW-DS stock (1.0 mg/ml) was prepared in sterile DMEM-F12. The concentrated drug stock was sterile filtered and added to the respective culture media (19.6 ml CM and 0.4 ml LMW-DS stock solution). The Control was made using 19.6 ml CM and 0.4 ml of DMEM-F12. LMW-DS and CM were added to the respective flasks (5 ml each) to reach the 0.01 mg/ml concentration of LMW-DS in each dish with a total of 10 ml CM each.
CM was aspirated into a clean and labelled 15 ml Falcon tube. The flasks (without culture medium) were placed into the -80° C. freezer for 30 minutes. The CM in the Falcon tubes was spun at 3000 x g for 5 minutes. Supernatant was removed and the small pellet was re-suspended in 2.5 ml Trizol:Water (4:1) solution at room temperature (RT, ~22° C.).
Two aliquots of 1 ml lysate were removed from each sample and 200 µl of chloroform was added to each (0.2 ml of chloroform per 1 ml of TRIzol Reagent used during the cell lysis step) and the tube was shaken vigorously. Samples were stored at RT for 2-3 minutes and subsequently centrifuged at 12,000 x g for 15 minutes at 4° C.
The RNA was precipitated from the aqueous phase by adding an equal amount of 100% ethanol. The precipitated RNA was fixed onto a Spin Cartridge, washed twice and dried. The RNA was eluted in 50 µl warm RNase-Free Water. The amount and quality of the purified RNA was measured by Nanodrop. The RNA was stored at -80° C. before transfer to Source Bioscience for Array analysis.
The expression data were downloaded into separate files for each cell line. The ‘Background corrected’ expression is the data from the “gProcessedSignal” of the arrays that is the result of the background signal extracted from the actual signal of the relevant probe. This is the most often used variable in array analysis. The background corrected signal was log2 transformed for all samples for statistical analysis. To reduce the false discovery rate in the samples, the signals that were below ‘expression level’ were removed. The ‘below expression’ level was set at 5 for the log2 transformed expression values.
Based on the expression pattern of the Control probes on each array it was decided to carry out Median Centering for all arrays before analysis to reduce the variability of the results. […]

[1] = pathway analysis of gene expression

## sodium salt of dextran sulfate [LMW-DS]
D0 control to D2 LMW-DS treated
  number of differentially expressed genes: 609
D0 control to D2 LMW-DS treated (second statement)
  number of differentially expressed genes: 247
No effect
  number of genes: abolished nutrient effect: 572
  number of genes: new effect induced by LMW-DS: 19
  number of genes: total: 591
Significant downregulation
  number of genes: abolished nutrient effect: 7
  number of genes: enhanced response to nutrients: 158
  number of genes: new effect induced by LMW-DS: 22
  number of genes: not different from control: 95
  number of genes: total: 282
Significant upregulation
  number of genes: abolished nutrient effect: 33
  number of genes: enhanced response to nutrients: 43
  number of genes: new effect induced by LMW-DS: 7
  number of genes: not different from control: 221
  number of genes: total: 304
total
  number of genes: abolished nutrient effect: 612
  number of genes: enhanced response to nutrients: 612
  number of genes: new effect induced by LMW-DS: 48
  number of genes: not different from control: 316
  number of genes: total: 1177
[1]
  deleterious effects of oxidative stress (amyloid-β and Lewy body pathology, mitochondrial dysfunction): prevent and reverse
  glutamate production: did not alter
